This note sets out measurements from patent US12384923B2, “Method of treatment of a surface” (Conopco, Inc., priority 2018, dated 2025).

For this assay, the system named is Raphidocelis subcapitata. Put plainly: Algal growth inhibition by lactam (absorbance at 680 nm of algal cultures in 6-well plates). Format: cell-based. The procedure: The freshwater algae Raphidocelis subcapitata was purchased from Culture Collection of Algae and Protozoa (CCAP 278/4). The algae was cultivated in commercial Gibco BG-11 Media. A bespoke built UV exposure cabinet was used for cultivation. The UV bulbs were replaced by light bulbs (Osram L 8W I535 white). The experiments were performed in sterile 6-well microtiter plates made from polystyrene under static conditions and room temperature. The light-dark cycle was 9 h dark and 15 h light. The quantification was done spectrophotometrically in the 6-well plate by using absorbance measurements. A wavelength scan was done to measure the absorbance maximum of the algaea. […] Since the algaea tend to sediment the plate was obitally shaken to bring the cells in suspension before measuring. Measuring was performed using a Varioscan plate reader for microtiter plates.
In this experiment, the algal cultures were treated with lactam at levels of 10 μM to 200 μM as well as two control plates, one untreated, and one treated with solvent (DMSO) only. The specific levels of lactam measured were 10 μM, 20 μM, 30 μM, 40 μM, 50 μM, 100 μM, 150 μM, 200 μM would equate to levels of from 2 ppm (10 μM) to 40 ppm (200 μM), and to wt. % of 0.0002 wt. % (10 μM) to 0.004 wt. % (200 μM). The lactam was provided in a DMSO solvent to the plates. The rate of growth of the algal culture was measured after 12 days by absorbance value.
In this experiment, the algal cultures were treated with lactam at levels of 0.01 μM to 10 μM as well as two control plates, one untreated, and one treated with solvent (DMSO) only. The specific levels of lactam measured were 0.01 μM, 0.1 μM, 1 μM, 10 μM, this would equate to levels of from 0.002 ppm also defined as 2 ppb (0.01 μM) to 2 ppm (10 μM), and to wt. % of 0.0000002 wt. % (0.01 μM) to 0.0002 wt. % (10 μM). The lactam was provided in a DMSO solvent to the plates. The rate of growth of the algal culture was measured after 6 days by absorbance value.

As for `C=C1NC(=O)C=C1c1ccc(Cl)cc1` [4-(4-chlorophenyl)-5-methylene-pyrrol-2-one], the “Absorbance (680 nm)” value runs as follows: (Example 2, lactam 10 μM, after 12 days) 0.1; (Example 2, lactam 20 μM, after 12 days) 0.1; (Example 2, lactam 30 μM, after 12 days) 0.1; (Example 2, lactam 40 μM, after 12 days) 0.1; (Example 2, lactam 50 μM, after 12 days) 0.1; (Example 2, lactam 100 μM, after 12 days) 0.1. Also, the “Absorbance (680 nm)” value runs as follows: (Example 2, lactam 150 μM, after 12 days) 0.1; (Example 2, lactam 200 μM, after 12 days) 0.1; (Example 3, lactam 0.01 μM, after 6 days) 0.8; (Example 3, lactam 0.1 μM, after 6 days) 0.9; (Example 3, lactam 1 μM, after 6 days) 0.9; (Example 3, lactam 10 μM, after 6 days) 0.1. The “algal growth inhibition (in words)” value by setting is: (Example 2, lactam level of 10 μM (0.0002 wt. %) and above, 12 days) “very effective algal growth inhibition”; (Example 3, lactam 1 μM, 6 days) “no algal growth inhibition was seen”; (Example 3, lactam amount even lower than 1 μM (0.1 μM, 0.01 μM), 6 days) “no algal growth inhibition was seen”; (Example 3, lactam level of 10 μM (0.0002 wt. %) and above, 6 days) “very effective algal growth inhibition”.
